Data published in patent publication US20190315814A1, “LANTIBIOTIC VARIANTS AND USES THEREOF” (priority 2016, published 2019).
Values after ≈ are worked out from the molar mass of the structure shown. Read-outs that look alike come from different tables or passages of the source. Marks after values point to notes of the source that are not given here.

Assays:
[1] = tested on: Clostridium difficile UNT103-1; assay: Second non-cannulated Syrian hamster C. difficile infection model, oral gavage dose range-finding; assay type: in vivo, Golden Syrian hamsters
Experimental: (§1) Following the recovery phase, male Golden Syrian hamsters were inoculated with Clostridium difficile UNT103-1 (VA11, non epidemic (cdtB-, REA group J) Curtis Donskey, Cleveland VA Hospital, Cleveland, Ohio). On Day 1, at 24 hrs after infection, all animals received a single subcutaneous injection of clindamycin (10 mg/kg). Test article formulated at 3 to 5 different doses were administered three times per day (TID), starting on Day 2 at 18 hours after Clindamycin injection, for 5 consecutive days (Days 2 through 6), and followed until Day 22 to assess recurrence. Vancomycin (positive control) was administered once a day at 20 mg/kg on Days 2 through 6. Cecal spore counts and Toxins A and B were determined as described above.

[2] = tested on: Clostridium difficile UNT103-1; assay: Non-cannulated Syrian hamster C. difficile infection model, oral gavage; assay type: in vivo, Golden Syrian hamsters; conditions: for Efficacy compared with Vancomycin-treated animals: end of the study at Day 22, in words; for Efficacy compared with Vancomycin-treated animals / Toxin A level at Day-22 / Mean LOG10 CFU/mL of feces homogenates (cecal spore counts) at Day-22 / Toxin B level at Day-22: oral gavage; for Percent Survival at Day-22: oral gavage TID Days 2-6, vancomycin 20 mg/kg once a day; for Toxin A level at Day-22: first value of A/B cell; for Toxin A level at Day-22 / Toxin B level at Day-22: limit of detection 0.8; for Mean LOG10 CFU/mL of feces homogenates (cecal spore counts) at Day-22: limit of detection 2.40; for Toxin B level at Day-22: second value of A/B cell
Experimental: as §1, with “formulations” for “formulated at 3 to 5 different doses”, “above” for “above.”

[3] = tested on: Clostridium scindens (ATCC 35704)
[4] = simulated gi fluid
[5] = tested on: VRE Enterococcus faecalis
[6] = tested on: Eggerthella lenta (ATCC 27337)
[7] = tested on: Lactobacillus acidophilus (CCUG 4356)
[8] = tested on: VRE Enterococcus faecium
[9] = in vitro; conditions: simulated gi fluid
Experimental: Assay incubation conditions included […] simulated gastric fluid (SGF, USP 39 Test Solution; 2 g/L NaCl, 7 mL/L glacial HCl, pH 1.4) containing 1.75 mg/mL Pepsin (3200-4500 U/mg) mixed with 7.5 μL of 10 mg/mL variant (or positive control, NH2-Met-Arg-Phe-Ala-OH, MRFA, CAS#67368-29-0) for a final concentration of 300 μg/ml variant in a microfuge tube. Samples were incubated at 37° C. and analyzed using HPLC or LC-MS for loss of substrate. The percent remaining, elimination rate constant (Ke), and in vitro protein half-lives were calculated. A control of SGF without enzyme was also run and analyzed in the same manner for each variant.

[10] = tested on: Heliobacter pylori
[11] = tested on: Peptostreptococcus anaerobius (ATCC 27337)
[12] = tested on: Staphylococcus aureus; assay: MIC assay against Staphylococcus aureus; assay type: cell-based
[13] = tested on: Streptococcus pneumoniae (ATCC 700675); assay: MIC assay against Streptococcus pneumoniae; assay type: cell-based; conditions: ATCC700675, read-out: MIC S. pneumonia
[14] = tested on: Pseudomonas aerigunosa; assay: MIC against Gram negative P. aeruginosa; assay type: cell-based, Pseudomonas aeruginosa
Experimental: A minimum inhibitory concentration (MIC) assessment against Pseudomonas aerigunosa (a Gram negative bacterium) was performed for single site variants in the broth dilution assay as described by the CLSI (CLSI document M07-A8). Samples and Ofloxacin control were dissolved and serially diluted in 100% DMSO and 4 μL was added per well to 96-well plate with 196 μL of Cation Adjusted Mueller Hinton II Broth seeded with P. aeruginosa. […] The assay plates were loosely wrapped in a plastic bag and incubated 20-24 hours at 36° C. (aerobic conditions) and then visually examined and scored positive (+) for inhibition of growth or turbidity or negative (−) for no effect upon growth or turbidity.

[15] = tested on: VRE Enterococcus faecalis; assay: organism not typed
[16] = tested on: VRE Enterococcus faecium; assay: organism not typed; conditions: read-out: MIC VRE ATCC 700221, strain ATCC 700221
[17] = tested on: Eggerthella lenta (ATCC 27337); assay: microbe, parasite or virus in culture; conditions: ATCC27337, read-out: MIC E. lenta
[18] = 6 mg/Kg oral gavage TID Days 2-6
[19] = 20 mg/Kg oral gavage TID Days 2-6
[20] = 35 mg/Kg oral gavage TID, limit of detection 0.8
[21] = 60 mg/Kg oral gavage TID Days 2-6
[22] = FaSSIF + 1% pancreatin + 3 μg/ml trypsin + 3 μg/ml chymotrypsin half-life

Molecule | Mean LOG10 CFU/mL of feces homogenates (cecal spore counts) at Day-22 ([1]; 6 mg/Kg oral gavage TID) [LOG10 CFU/mL] | Toxin A level at Day-22 ([1]; 6 mg/Kg oral gavage TID) [ng/mL] | Toxin B level at Day-22 ([1]; 6 mg/Kg oral gavage TID) [ng/mL] | Percent Survival at Day-22 [1, 18] [%] | Mean LOG10 CFU/mL of feces homogenates (cecal spore counts) at Day-22 ([1]; 20 mg/Kg oral gavage TID) [LOG10 CFU/mL] | Toxin A level at Day-22 ([1]; 20 mg/Kg oral gavage TID) [ng/mL] | Toxin B level at Day-22 ([1]; 20 mg/Kg oral gavage TID) [ng/mL] | Percent Survival at Day-22 [1, 19] [%] | Mean LOG10 CFU/mL of feces homogenates (cecal spore counts) at Day-22 ([1]; 60 mg/Kg oral gavage TID) [LOG10 CFU/mL] | Toxin A level at Day-22 ([1]; 60 mg/Kg oral gavage TID) [ng/mL] | Toxin B level at Day-22 ([1]; 60 mg/Kg oral gavage TID) [ng/mL] | Percent Survival at Day-22 [1, 21] [%] | Efficacy compared with Vancomycin-treated animals [2] | Percent Survival at Day-22 [2] [%] | Toxin A level at Day-22 [2] | Mean LOG10 CFU/mL of feces homogenates (cecal spore counts) at Day-22 [2] | Toxin B level at Day-22 [2] | MIC C. scindens [3] [µg/mL] | half-life [4, 22] [h] | half-life ([4]; FaSSIF only half-life) [h] | other results
C=C1NC(=O)[C@H](Cc2c[nH]c3ccccc23)NC(=O)[C@H](NC(=O)[C@H](CCCCN)NC(=O)[C@@H](N)C(C)C)CSC[C@@H](C(=O)N[C@H]2C(=O)N3CCC[C@H]3C(=O)NCC(=O)N[C@H](C(=O)N[C@@H](C)C(=O)N[C@@H](CC(N)=O)C(=O)N/C(=C\C)C(=O)NCC(=O)N[C@@H]3CSC[C@@H]4NC(=O)[C@H](Cc5ccc(O)cc5)NC(=O)[C@@H](CS/C=C\NC4=O)NC(=O)[C@H](CC(N)=O)NC(=O)[C@H](Cc4ccccc4)NC3=O)CS[C@H]2C)NC(=O)[C@H](CC(C)C)NC1=O [F1V R13N] | 4.27 | 266.2 | 238.1 | 50 | 3.88 | 74.2 | 57.8 | 66 | 2.51 | 7.3 | 5.5 | 83 | equal or superior efficacy | 100 | 0.8/0.8** ng/mL | 2.4* LOG10 CFU/mL | 0.8/0.8** ng/mL | 4 (≈ 1.84 µM) | > 12 | > 12 | Mean LOG10 CFU/mL of feces homogenates (cecal spore counts) at Day-22 ([1]; 2 mg/Kg oral gavage TID): 6.13 LOG10 CFU/mL; Toxin A level at Day-22 ([1]; 2 mg/Kg oral gavage TID): 578.5 ng/mL; Toxin B level at Day-22 ([1]; 2 mg/Kg oral gavage TID): 462.7 ng/mL; Percent Survival at Day-22 ([1]; 2 mg/Kg oral gavage TID Days 2-6): 0%; Percent Survival at Day-22 ([1]; 35 mg/Kg oral gavage TID Days 2-6): 100%; Toxin A level at Day-22 [1, 20]: 0.8/0.8** ng/mL; Toxin B level at Day-22 [1, 20]: 0.8/0.8** ng/mL; Mean LOG10 CFU/mL of feces homogenates (cecal spore counts) at Day-22 ([1]; 35 mg/Kg oral gavage TID, limit of detection 2.40): 2.40* LOG10 CFU/mL; Efficacy compared with Vancomycin-treated animals at the same dose ([1]; end of the study at Day 21, ascending dose regimen, in words): superior efficacy; MIC VRE ATCC 51575 ([5]; VRE): 32 µg/mL (≈ 14.7 µM); MIC VRE CCUG 47775 ([5]; VRE): 32 µg/mL (≈ 14.7 µM); MIC E. lenta [6]: 0.5 µg/mL (≈ 0.23 µM); MIC L. acidophilus [7]: 0.5 µg/mL (≈ 0.23 µM); MIC VRE ATCC 700221 [8]: 16 µg/mL (≈ 7.36 µM); half-life [9]: > 24 h; MIC to H. Pylori without EDTA [10]: 8 µg/mL (≈ 3.68 µM); MIC to H. Pylori with 0.05M EDTA [10]: 8 µg/mL; MIC P. anaerobius [11]: 0.25 µg/mL (≈ 0.115 µM)
C=C1NC(=O)[C@H](Cc2c[nH]c3ccccc23)NC(=O)[C@H](NC(=O)[C@H](CCCCN)NC(=O)[C@@H](N)[C@@H](C)CC)CSC[C@@H](C(=O)N[C@H]2C(=O)N3CCC[C@H]3C(=O)NCC(=O)N[C@H](C(=O)N[C@@H](C)C(=O)N[C@@H](CC(N)=O)C(=O)NC(=CC)C(=O)NCC(=O)N[C@@H]3CSC[C@@H]4NC(=O)[C@H](Cc5ccccc5)NC(=O)[C@@H](CS/C=C\NC4=O)NC(=O)[C@H](CC(N)=O)NC(=O)[C@H](Cc4ccccc4)NC3=O)CS[C@H]2C)NC(=O)[C@H](CC(C)C)NC1=O [F1I R13N Y20F] | 5.47 | 215.5 | 242.2 | 0 | 5.37 | 165.5 | 272.3 | 33 | 3.18 | 47.6 | 108.7 | 83 | equal or superior efficacy | 83 | 5.1 ng/mL | 2.65 LOG10 CFU/mL | 6 ng/mL | 2 (≈ 0.921 µM) | > 12 | > 12 | MIC VRE ATCC 51575 ([5]; VRE): 8 µg/mL (≈ 3.68 µM); MIC VRE CCUG 47775 ([5]; VRE): 16 µg/mL (≈ 7.36 µM); MIC E. lenta [6]: 0.125 µg/mL (≈ 0.0575 µM); MIC L. acidophilus [7]: 0.5 µg/mL (≈ 0.23 µM); MIC VRE ATCC 700221 [8]: 8 µg/mL (≈ 3.68 µM); half-life [9]: > 24 h; MIC to H. Pylori without EDTA [10]: 8 µg/mL (≈ 3.68 µM); MIC to H. Pylori with 0.05M EDTA [10]: 4 µg/mL; MIC P. anaerobius [11]: 0.125 µg/mL (≈ 0.0575 µM)
Gentamicin | – | – | – | – | – | – | – | – | – | – | – | – | – | – | – | – | – | – | – | – | MIC S. aureus ATCC 19636 ([12]; strain ATCC 19636): 0.125 µg/mL; MIC S. aureus ATCC 29213 ([12]; strain ATCC 29213): 0.25 µg/mL; MIC SS. aureus ATCC 33591 ([12]; strain ATCC 33591): 1 µg/mL; MIC S. aureus BAA-1717 ([12]; strain BAA-1717): 0.25 µg/mL
CC1(C)S[C@@H]2[C@H](NC(=O)[C@H](N)c3ccccc3)C(=O)N2[C@H]1C(=O)O [Ampicillin] | – | – | – | – | – | – | – | – | – | – | – | – | – | – | – | – | – | – | – | – | MIC [13]: 1 µg/mL (≈ 2.86 µM)
CC1COc2c(N3CCN(C)CC3)c(F)cc3c(=O)c(C(=O)O)cn1c23 (centres unmarked) [Ofloxacin] | – | – | – | – | – | – | – | – | – | – | – | – | – | – | – | – | – | – | – | – | MIC [14]: 1 µg/mL (≈ 2.77 µM)
CC(=O)NC[C@H]1CN(c2ccc(N3CCOCC3)c(F)c2)C(=O)O1 [Linezoid, Linezolid] | – | – | – | – | – | – | – | – | – | – | – | – | – | – | – | – | – | – | – | – | MIC ([15]; read-out: MIC VRE ATCC 51299): 2 µg/mL (≈ 5.93 µM); MIC ([15]; read-out: MIC VRE ATCC 51575): 2 µg/mL (≈ 5.93 µM); MIC ([15]; read-out: MIC VRE CCUG 47775): 2 µg/mL (≈ 5.93 µM); MIC ([16]; multi-site variants): 4 µg/mL (≈ 11.9 µM); MIC ([16]; single site variants): 2 µg/mL (≈ 5.93 µM); MIC VRE ATCC 51575 ([5]; strain ATCC 51575, multi-site variants): 2 µg/mL (≈ 5.93 µM); MIC [17]: 1 µg/mL (≈ 2.96 µM)
